# Test results reported in PubChem BioAssay AID200 (DTP/NCI, 2004).
# Where “and” joins values, the source holds several entries; their conditions need not be identical. Equal entries are not always repeated. Inconclusive results and toxic doses are left out.
# Tested on: B6C3F1 mice, B16 melanoma ip, median survival T/C
# Experiment: NCI In Vivo Anticancer Drug Screen. Data for tumor model B16 Melanoma (intraperitoneal) in B6C3F1 mice
# Conditions: endpoint: median survival time, higher = longer survival
# Outline: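 Transplantable tumor in mice; treated vs vehicle control groups; survival or tumor size measured; value = T/C ratio.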
compound,measurement,setting,value
[Cl][Mn][Cl],T/C,"dose: 2.0 mg/kg/injection, schedule: Q01DX009 (ip), vehicle: saline",115 % of control and 107 % of control
same,T/C,"dose: 4.0 mg/kg/injection, schedule: Q01DX009 (ip), vehicle: saline",96 % of control and 103 % of control and 106 % of control
same,T/C,"dose: 8.0 mg/kg/injection, schedule: Q01DX009 (ip), vehicle: saline",112 % of control and 98 % of control
same,T/C,"dose: 16.0 mg/kg/injection, schedule: Q01DX009 (ip), vehicle: saline",104 % of control
same,T/C,"dose: 32.0 mg/kg/injection, schedule: Q01DX009 (ip), vehicle: saline",155 % of control
same,T/C,"dose: 64.0 mg/kg/injection, schedule: Q01DX009 (ip), vehicle: saline",152 % of control and 160 % of control
OCCCN1CCCCC1CO (stereo not drawn),T/C,"dose: 12.5 mg/kg/injection, schedule: Q01DX009 (ip), vehicle: saline",94 % of control
same,T/C,"dose: 25.0 mg/kg/injection, schedule: Q01DX009 (ip), vehicle: saline",106 % of control
same,T/C,"dose: 50.0 mg/kg/injection, schedule: Q01DX009 (ip), vehicle: saline",99 % of control
same,T/C,"dose: 100.0 mg/kg/injection, schedule: Q01DX009 (ip), vehicle: saline",105 % of control
same,T/C,"dose: 200.0 mg/kg/injection, schedule: Q01DX009 (ip), vehicle: saline",101 % of control
same,T/C,"dose: 400.0 mg/kg/injection, schedule: Q01DX009 (ip), vehicle: saline",111 % of control and 101 % of control
same,T/C,"dose: 800.0 mg/kg/injection, schedule: Q01DX009 (ip), vehicle: saline",112 % of control
CS(=O)(=O)CS(=O)(=O)OCCCl,T/C,"dose: 6.25 mg/kg/injection, schedule: Q01DX009 (ip), vehicle: saline with Tween-80",114 % of control
same,T/C,"dose: 12.5 mg/kg/injection, schedule: Q01DX009 (ip), vehicle: saline with Tween-80",116 % of control
same,T/C,"dose: 25.0 mg/kg/injection, schedule: Q01DX009 (ip), vehicle: saline with Tween-80",169 % of control and 178 % of control
same,T/C,"dose: 50.0 mg/kg/injection, schedule: Q01DX009 (ip), vehicle: saline with Tween-80",228 % of control and 270 % of control
same,T/C,"dose: 100.0 mg/kg/injection, schedule: Q01DX009 (ip), vehicle: saline with Tween-80",331 % of control
O=C1NC(=O)C2(CCc3ccc(N(CCCl)CCCl)cc32)N1 (stereo not drawn),T/C,"dose: 1.5 mg/kg/injection, schedule: Q01DX009 (ip), vehicle: saline with Tween-80",122 % of control
same,T/C,"dose: 6.25 mg/kg/injection, schedule: Q01DX009 (oral), vehicle: saline with Tween-80",100 % of control
same,T/C,"dose: 12.0 mg/kg/injection, schedule: Q01DX009 (ip), vehicle: saline with Tween-80",157 % of control
same,T/C,"dose: 12.5 mg/kg/injection, schedule: Q01DX009 (oral), vehicle: saline with Tween-80",115 % of control and 108 % of control
same,T/C,"dose: 24.0 mg/kg/injection, schedule: Q01DX009 (ip), vehicle: saline with Tween-80",202 % of control
same,T/C,"dose: 25.0 mg/kg/injection, schedule: Q01DX009 (oral), vehicle: saline with Tween-80",109 % of control and 105 % of control
same,T/C,"dose: 48.0 mg/kg/injection, schedule: Q01DX009 (ip), vehicle: saline with Tween-80",236 % of control
same,T/C,"dose: 50.0 mg/kg/injection, schedule: Q01DX009 (oral), vehicle: saline with Tween-80",121 % of control and 104 % of control
same,T/C,"dose: 100.0 mg/kg/injection, schedule: Q01DX009 (oral), vehicle: saline with Tween-80",109 % of control and 117 % of control
same,T/C,"dose: 200.0 mg/kg/injection, schedule: Q01DX009 (oral), vehicle: saline with Tween-80",117 % of control and 101 % of control
same,T/C,"dose: 400.0 mg/kg/injection, schedule: Q01DX009 (oral), vehicle: saline with Tween-80",109 % of control
COc1cccc(Sc2ccc([N+](=O)[O-])c3no[n+]([O-])c23)c1,T/C,"dose: 1.85 mg/kg/injection, schedule: Q01DX009 (ip), vehicle: saline with Tween-80",111 % of control and 93 % of control
same,T/C,"dose: 3.75 mg/kg/injection, schedule: Q01DX009 (ip), vehicle: saline with Tween-80",94 % of control and 101 % of control
same,T/C,"dose: 7.5 mg/kg/injection, schedule: Q01DX009 (ip), vehicle: saline with Tween-80",92 % of control and 99 % of control
same,T/C,"dose: 15.0 mg/kg/injection, schedule: Q01DX009 (ip), vehicle: saline with Tween-80",88 % of control and 91 % of control
same,T/C,"dose: 30.0 mg/kg/injection, schedule: Q01DX009 (ip), vehicle: saline with Tween-80",88 % of control and 89 % of control and 95 % of control
same,T/C,"dose: 60.0 mg/kg/injection, schedule: Q01DX009 (ip), vehicle: saline with Tween-80",91 % of control
N#CC(C#N)=NNc1ccc2cn[nH]c2c1,T/C,"dose: 12.5 mg/kg/injection, schedule: Q01DX009 (ip), vehicle: Klucel (hydroxypropylcellulose) (HPC)",108 % of control
same,T/C,"dose: 25.0 mg/kg/injection, schedule: Q01DX009 (ip), vehicle: Klucel (hydroxypropylcellulose) (HPC)",100 % of control
same,T/C,"dose: 50.0 mg/kg/injection, schedule: Q01DX009 (ip), vehicle: Klucel (hydroxypropylcellulose) (HPC)",106 % of control
same,T/C,"dose: 100.0 mg/kg/injection, schedule: Q01DX009 (ip), vehicle: Klucel (hydroxypropylcellulose) (HPC)",102 % of control
COc1cc2cc(c1Cl)N(C)C(=O)CC(O)C1(C)OC1C(C)C1CC(O)(NC(=O)O1)C(OC)/C=C/C=C(C)C2OC (stereo not drawn),T/C,"dose: 4.0 micrograms/kg/injection, schedule: Q01DX009 (ip), vehicle: distilled water + alcohol",105 % of control
same,T/C,"dose: 8.0 micrograms/kg/injection, schedule: Q01DX009 (ip), vehicle: distilled water + alcohol",96 % of control
same,T/C,"dose: 16.0 micrograms/kg/injection, schedule: Q01DX009 (ip), vehicle: distilled water + alcohol",102 % of control
same,T/C,"dose: 32.0 micrograms/kg/injection, schedule: Q01DX009 (ip), vehicle: distilled water + alcohol",88 % of control
